In article PMC4674309 (Molecular cancer therapeutics, 2015) one finds IC50 data, which are given here for 1 compound.

This assay deals with IGF-IR (Homo sapiens, UniProt P08069). Kind of assay: Western blot of IGF-IR autophosphorylation. It counts as cell-based. (Immunoblotting shows a protein as a band on a membrane.)
IGF-IR, sequence (P08069 31-736): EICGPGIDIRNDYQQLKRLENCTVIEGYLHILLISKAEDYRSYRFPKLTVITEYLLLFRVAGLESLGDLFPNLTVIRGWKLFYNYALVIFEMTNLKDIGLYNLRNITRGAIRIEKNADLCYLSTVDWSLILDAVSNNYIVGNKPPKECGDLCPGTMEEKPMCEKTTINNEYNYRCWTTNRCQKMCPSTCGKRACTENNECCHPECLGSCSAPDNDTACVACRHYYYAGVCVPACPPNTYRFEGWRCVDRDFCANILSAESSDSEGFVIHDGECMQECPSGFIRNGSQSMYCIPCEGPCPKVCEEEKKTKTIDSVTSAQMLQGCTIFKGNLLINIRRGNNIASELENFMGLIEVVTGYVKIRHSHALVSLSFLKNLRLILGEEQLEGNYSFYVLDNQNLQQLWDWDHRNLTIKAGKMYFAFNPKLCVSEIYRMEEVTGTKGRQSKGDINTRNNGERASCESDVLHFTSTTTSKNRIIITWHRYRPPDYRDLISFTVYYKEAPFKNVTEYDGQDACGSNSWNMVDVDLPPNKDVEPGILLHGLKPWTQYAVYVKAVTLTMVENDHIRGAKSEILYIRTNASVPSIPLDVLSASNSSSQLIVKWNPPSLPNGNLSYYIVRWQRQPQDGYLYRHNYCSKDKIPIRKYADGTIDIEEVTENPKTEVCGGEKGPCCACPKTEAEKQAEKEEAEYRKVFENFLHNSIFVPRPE
IGF-IR, sequence (P08069 741-1367): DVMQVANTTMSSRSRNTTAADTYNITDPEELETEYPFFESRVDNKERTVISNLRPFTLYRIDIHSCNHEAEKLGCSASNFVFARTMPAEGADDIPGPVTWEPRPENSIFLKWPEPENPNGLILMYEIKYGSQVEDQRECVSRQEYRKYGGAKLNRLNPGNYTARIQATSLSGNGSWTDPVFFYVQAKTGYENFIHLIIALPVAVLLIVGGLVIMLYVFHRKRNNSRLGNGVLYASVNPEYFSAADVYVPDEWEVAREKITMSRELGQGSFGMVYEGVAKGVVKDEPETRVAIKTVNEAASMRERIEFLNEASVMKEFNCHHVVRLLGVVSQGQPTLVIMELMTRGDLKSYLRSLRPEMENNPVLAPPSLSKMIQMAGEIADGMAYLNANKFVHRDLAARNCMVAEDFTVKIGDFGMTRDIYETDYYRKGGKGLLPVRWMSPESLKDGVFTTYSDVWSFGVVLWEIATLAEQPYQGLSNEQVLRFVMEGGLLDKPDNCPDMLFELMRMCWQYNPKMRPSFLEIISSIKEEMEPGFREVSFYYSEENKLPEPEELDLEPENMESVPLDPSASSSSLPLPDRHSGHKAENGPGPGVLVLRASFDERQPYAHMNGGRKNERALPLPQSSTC

A word on the IC50: it is the concentration at which inhibition is half-maximal. `Cc1ccsc1C(=O)Nc1cc(CN2CCN(C(=O)CO)CC2)ccc1/C=C/c1n[nH]c2ccccc12` [KW-2450] registered an IC50 of under 2 nM.
